In patent US8987250B2 (Gilead Sciences, Inc., priority 2012, dated 2015) one finds EC50 data, which are given here for eleven compounds.

This assay deals with HIV-IIIb. The assay is described as follows: Test A: Antiviral Assay in MT4 Cells. It counts as cell-based. Particulars: Human immunodeficiency virus 1, IIIB, MT4, 120 h, Table 1; MT-4 cells infected with HIV-IIIb, 5 days of incubation, CellTiter-Glo; read-out: EC50. How it is done: The antiviral properties of a compound of the invention may be determined using Test A described below.
Test A: Antiviral Assay in MT4 Cells
For the antiviral assay utilizing MT-4 cells, 0.4 μL of […] test concentration of 3-fold serially diluted compound in DMSO was added to 40 μL of cell growth medium (RPMI 1640, 10% FBS, 1% penicilline/Streptomycine, 1% L-Glutamine, 1% HEPES) in each well of 384-well assay plates (10 concentrations) in quadruplicate.
One mL aliquots of 2×10e6 MT-4 cells were pre-infected for 1 and 3 hours respectively, @ 37° C. with 25 uL (MT4) or of either cell growth medium (mock-infected) or a fresh 1:250 dilution of an HIV-IIIb concentrated ABI stock (0.004m.o.i. for MT4 cells). Infected and uninfected cells were diluted in cell growth medium and 35 uL of 2000 (for MT4) cells was added to each well of the assay plates.
Assay plates were then incubated in a 37° C. incubator. After 5 days of incubation, […] of 2× concentrated CellTiter-Glo™ Reagent (catalog #G7573, Promega Biosciences, Inc., Madison, Wis.) was added to each well of the assay plate. Cell lysis was carried out by incubating at room temperature for 2-3 min and then chemiluminescence was read using the Envision reader (PerkinElmer). […]

Turning to `Cc1cc2nc(-c3cnc4c(cnn4C)c3)sc2c(-c2ccc(Cl)cc2)c1[C@H](OC(C)(C)C)C(=O)O` [Compound 116, (S)-2-tert-butoxy-2-(7-(4-chlorophenyl)-5-methyl-2-(1-methyl-1H-pyrazolo[3,4-b]pyridin-5-yl)benzo[d]thiazol-6-yl)acetic acid], the concentration giving a half-maximal response (EC50) came to 0.019 µM.
Consider `Cc1cc2nc(-n3cccc(-c4ccc5c(cnn5C)c4)c3=O)sc2c(-c2ccc(Cl)cc2)c1[C@H](OC(C)(C)C)C(=O)O` [Compound 117, (S)-2-tert-butoxy-2-(7-(4-chlorophenyl)-5-methyl-2-(3-(1-methyl-1H-indazol-5-yl)-2-oxopyridin-1(2H)-yl)benzo[d]thiazol-6-yl)acetic acid], for which the 50% effective concentration (EC50) was 0.014 µM.
Regarding `Cc1cc2nc(-n3cc(-c4ccc5c(cnn5C)c4)ccc3=O)sc2c(-c2ccc(Cl)cc2)c1[C@H](OC(C)(C)C)C(=O)O` [Compound 118, (S)-2-tert-butoxy-2-(7-(4-chlorophenyl)-5-methyl-2-(5-(1-methyl-1H-indazol-5-yl)-2-oxopyridin-1(2H)-yl)benzo[d]thiazol-6-yl)acetic acid], the EC50 turned out to be 0.101 µM.
In the case of `Cc1cc2nc(-c3cccc(-c4ccc5c(cnn5C)c4)c3)sc2c(-c2ccc3c(c2)OC(C)O3)c1[C@H](OC(C)(C)C)C(=O)O` (stereo partly drawn) [Compound 119, (2S)-2-tert-butoxy-2-(5-methyl-2-(3-(1-methyl-1H-indazol-5-yl)phenyl)-7-(2-methylbenzo[d][1,3]dioxol-5-yl)benzo[d]thiazol-6-yl)acetic acid] it was 0.237 µM.
In the case of `Cc1cc2nc(-c3cccc(-c4cnn(C)c4C)c3)sc2c(-c2ccc(Cl)cc2)c1[C@H](OC(C)(C)C)C(=O)O` [Compound 120, (S)-2-tert-butoxy-2-(7-(4-chlorophenyl)-2-(3-(1,5-dimethyl-1H-pyrazol-4-yl)phenyl)-5-methylbenzo[d]thiazol-6-yl)acetic acid] it was 0.023 µM.
For the compound `Cc1cc2nc(-c3cnc4c(c3)c(C)cn4C)sc2c(-c2ccc(Cl)cc2)c1[C@H](OC(C)(C)C)C(=O)O` [Compound 121, (S)-2-tert-butoxy-2-(7-(4-chlorophenyl)-2-(1,3-dimethyl-1H-pyrrolo[2,3-b]pyridin-5-yl)-5-methylbenzo[d]thiazol-6-yl)acetic acid], the EC50 came out at 0.027 µM.
In the case of `Cc1cc2nc(-c3ccnc(-c4cccc(-c5nnn[nH]5)c4)c3)sc2c(-c2ccc(Cl)cc2)c1[C@H](OC(C)(C)C)C(=O)O` [Compound 122, (S)-2-(2-(2-(3-(1H-tetrazol-5-yl)phenyl)pyridin-4-yl)-7-(4-chlorophenyl)-5-methylbenzo[d]thiazol-6-yl)-2-tert-butoxyacetic acid], the EC50 worked out at 5.52 µM.
With `Cc1cc2nc(N3CCCN(c4ccc5c(cnn5C)c4)C3=O)sc2c(-c2ccc(Cl)cc2)c1[C@H](OC(C)(C)C)C(=O)O` [Compound 123, (S)-2-tert-butoxy-2-(7-(4-chlorophenyl)-5-methyl-2-(3-(1-methyl-1H-indazol-5-yl)-2-oxotetrahydropyrimidin-1(2H)-yl)benzo[d]thiazol-6-yl)acetic acid] the figure was 0.018 µM; with `Cc1cc2nc(N3CCN(c4ccc5c(cnn5C)c4)C3=O)sc2c(-c2ccc(Cl)cc2)c1[C@H](OC(C)(C)C)C(=O)O` [Compound 124, (S)-2-tert-butoxy-2-(7-(4-chlorophenyl)-5-methyl-2-(3-(1-methyl-1H-indazol-5-yl)-2-oxoimidazolidin-1-yl)benzo[d]thiazol-6-yl)acetic acid], 0.021 µM; with `Cc1cc2nc(N3CC(c4ccc5c(cnn5C)c4)CC3=O)sc2c(-c2ccc(Cl)cc2)c1[C@H](OC(C)(C)C)C(=O)O` (stereo partly drawn) [Compound 125, (2S)-2-tert-butoxy-2-(7-(4-chlorophenyl)-5-methyl-2-(4-(1-methyl-1H-indazol-5-yl)-2-oxopyrrolidin-1-yl)benzo[d]thiazol-6-yl)acetic acid], 0.205 µM.
In the case of `Cc1cc2nc(N3CCC(c4ccccc4)C3)sc2c(-c2ccc(Cl)cc2)c1[C@H](OC(C)(C)C)C(=O)O` (some centres unmarked) [Compound 126] it was 0.722 µM.

For orientation: EC50 means the concentration that produces a half-maximal response.
